In PubChem BioAssay (NCI):
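Tested at 5 concentrations; 48 h exposure; 96-well plates; endpoints linearly interpolated, else capped at highest concentration. TGI denotes the concentration required for complete inhibition of growth.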

How the values were obtained:
Experiment in all cases: NCI-60 cell line screen, 48 h
[1] = test system: T-47D breast
[2] = test system: COLO 205 colon
[3] = test system: K-562 leukemia
[4] = test system: BT-549 breast
[5] = test system: MALME-3M melanoma
[6] = test system: TK-10 renal
[7] = test system: MCF7 breast
[8] = test system: MOLT-4 leukemia
[9] = test system: HCT-116 colon
[10] = test system: HOP-92 NSCLC
[11] = test system: SF-539 CNS
[12] = test system: NCI-H460 lung
[13] = test system: M14 melanoma
[14] = test system: OVCAR-8 ovarian
[15] = test system: OVCAR-3 ovarian
[16] = test system: SW-620 colon
[17] = test system: U251 CNS
[18] = test system: HT29 colon
[19] = test system: MDA-MB-435
[20] = test system: NCI-H23 lung
[21] = test system: HL-60(TB) leukemia
[22] = test system: HCC-2998 colon
[23] = test system: UO-31 renal
[24] = test system: RPMI-8226 leukemia
[25] = test system: LOX IMVI melanoma
[26] = test system: 786-0 renal
[27] = test system: HOP-62 NSCLC
[28] = test system: ACHN renal
[29] = test system: NCI-H226 lung
[30] = test system: HCT-15 colon
[31] = test system: IGROV1 ovarian
[32] = test system: SF-295 CNS
[33] = test system: HS 578T breast
[34] = test system: KM12 colon
[35] = test system: OVCAR-4 ovarian
[36] = test system: SR leukemia
[37] = test system: SK-MEL-5 melanoma
[38] = test system: MDA-N
[39] = test system: MDA-MB-231 breast
[40] = test system: NCI-H522 lung
[41] = test system: UACC-257 melanoma
[42] = test system: SK-OV-3 ovarian
[43] = test system: DU-145 prostate
[44] = test system: SF-268 CNS
[45] = test system: UACC-62 melanoma
[46] = test system: SNB-19 CNS
[47] = test system: SNB-75 CNS
[48] = test system: NCI/ADR-RES ovarian
[49] = test system: SN12C renal
[50] = test system: RXF 393 renal
[51] = test system: A549 NSCLC
[52] = test system: EKVX NSCLC
[53] = test system: CCRF-CEM leukemia
[54] = test system: PC-3 prostate
[55] = test system: SK-MEL-28 melanoma
[56] = test system: CAKI-1 renal
[57] = test system: A498 renal

Measured: TGI

CCCCN(C(=O)c1ccccc1)C1CCC(=O)c2[nH]c3ccccc3c21 (configuration not stated)
70 µM: [50]
48.1 µM: [2]
51.2 µM: [33]
41.4 µM: [36]
75.2 µM: [47]
29.6 µM: [21]
84 µM: [56]
49.9 µM: [37]
84.5 µM: [10]
89.9 µM: [1]
93.4 µM: [29]
68.8 µM: [24]
> 100 µM: all other assays above
